Experimental data taken from patent publication US20230374038A1, “MODULATORS OF CYSTIC FIBROSIS TRANSMEMBRANE CONDUCTANCE REGULATOR” (VERTEX PHARMACEUTICALS INCORPORATED, priority 2020, published 2023).

Target: CFTR (Homo sapiens, UniProt P13569)
Experiment: Membrane Potential Dye, Enteroid Assay B
Format: cell-based
Conditions: for EC50: read-out: Ent. B EC50
Method: Base medium (ADF+++) consisted of Advanced DMEM/Ham's F12, 2 mM Glutamax, 10 mM HEPES, 1 µg/mL penicillin/streptomycin.
Intestinal enteroid maintenance medium (IEMM) consisted of ADF+++, 1× B27 supplement, 1× N2 supplement, 1.25 mM N-acetyl cysteine, 10 mM Nicotinamide, 50 ng/mL hEGF, 10 nM Gastrin, 1 pg/mL hR-spondin-1, 100 ng/mL hNoggin, TGF-b type 1 inhibitor A-83-01, 100 μg/mL Primocin, […] P38 MAPK inhibitor SB202190.
Bath 1 Buffer consisted of 1 mM MgCl2, 160 mM NaCl, 4.5 mM KCl, 10 mM HEPES, 10 mM Glucose, 2 mM CaCl2).
Chloride Free Buffer consisted of 1 mM Magnesium Gluconate, 2 mM Calcium Gluconate, 4.5 mM Potassium Gluconate, 160 mM Sodium Gluconate, 10 mM HEPES, 10 mM Glucose.
Bath1 Dye Solution consisted of Bath 1 Buffer, 0.04% Pluronic F127, […] Methyl Oxonol, 30 μM CaCCinh-A01, 30 μM Chicago Sky Blue.
Chloride Free Dye Solution consisted of Chloride Free Buffer, 0.04% Pluronic F127, 20 μM Methyl Oxonol, 30 μM CaCCinh-A01, 30 μM Chicago Sky Blue.
Chloride Free Dye Stimulation Solution consisted of Chloride Free Dye Solution, 10 μM forskolin, 100 μM IBMX, and 300 nM Compound III.
Human intestinal epithelial enteroid cells were obtained from the Hubrecht Institute for Developmental Biology and Stem Cell Research, Utrecht, The Netherlands and expanded in T-Flasks as previously described (Dekkers J F, Wiegerinck C L, de Jonge H R, Bronsveld I, Janssens H M, de Winter-de Groot K M, Brandsma A M, de Jong N W M, Bijvelds M J C, Scholte B J, Nieuwenhuis E E S, van den Brink S, Clevers H, van der Ent C K, Middendorp S and M Beekman J M. A functional CFTR assay using primary cystic fibrosis intestinal organoids. Nat Med. 2013 July; 19(7):939-45.).
Cells were recovered in cell recovery solution, collected by centrifugation at 650 rpm for 5 min at 4° C., resuspended in TryPLE and incubated for 5 min at 37° C. Cells were then collected by centrifugation at 650 rpm for 5 min at 4° C. and resuspended in IEMM containing 10 μM ROCK inhibitor (RI). The cell suspension was passed through a 40 μm cell strainer and resuspended at 1×10^6 cells/mL in IEMM containing 10 μM RI. Cells were seeded at 5000 cells/well into multi-well plates and incubated for overnight at 37° C., 95% humidity and 5% CO2 prior to assay.
Enteroid cells were incubated with test compound in IEMM for 18-24 hours at 37° C., 95% humidity and 5% CO2. […] Briefly, cells were washed 5 times in Bath 1 Buffer. Bath 1 Dye Solution was added and the cells were incubated for 25 min at room temperature. Following dye incubation, cells were washed 3 times in Chloride Free Dye Solution. Chloride transport was initiated by addition of Chloride Free Dye Stimulation Solution and the fluorescence signal was read for 15 min. […] Chloride transport was then expressed as a percentage of the chloride transport following treatment with 1 μM (14S)-8-[3-(2-{Dispiro[2.0.2.1]heptan-7-yl}ethoxy)-1H-pyrazol-1-yl]-12,12-dimethyl-2λ^6-thia-3,9,11,18,23-pentaazatetracyclo[17.3.1.111,14.05,10]tetracosa-1(22),5,7,9,19(23),20-hexaene-2,2,4-trione, 3 μM (R)-1-(2,2-difluorobenzo[d][1,3]dioxol-5-yl)-N-(1-(2,3-dihydroxypropyl)-6-fluoro-2-(1-hydroxy-2-methylpropan-2-yl)-1H-indol-5-yl)cyclopropanecarboxamide and 300 nM acute N-[2,4-bis(1,1-dimethylethyl)-5-hydroxyphenyl]-1,4-dihydro-4-oxoquinoline-3-carboxamide triple combination control (% Activity).

Chain of CFTR (P13569 with tags, fused parts or gaps DEL508-508): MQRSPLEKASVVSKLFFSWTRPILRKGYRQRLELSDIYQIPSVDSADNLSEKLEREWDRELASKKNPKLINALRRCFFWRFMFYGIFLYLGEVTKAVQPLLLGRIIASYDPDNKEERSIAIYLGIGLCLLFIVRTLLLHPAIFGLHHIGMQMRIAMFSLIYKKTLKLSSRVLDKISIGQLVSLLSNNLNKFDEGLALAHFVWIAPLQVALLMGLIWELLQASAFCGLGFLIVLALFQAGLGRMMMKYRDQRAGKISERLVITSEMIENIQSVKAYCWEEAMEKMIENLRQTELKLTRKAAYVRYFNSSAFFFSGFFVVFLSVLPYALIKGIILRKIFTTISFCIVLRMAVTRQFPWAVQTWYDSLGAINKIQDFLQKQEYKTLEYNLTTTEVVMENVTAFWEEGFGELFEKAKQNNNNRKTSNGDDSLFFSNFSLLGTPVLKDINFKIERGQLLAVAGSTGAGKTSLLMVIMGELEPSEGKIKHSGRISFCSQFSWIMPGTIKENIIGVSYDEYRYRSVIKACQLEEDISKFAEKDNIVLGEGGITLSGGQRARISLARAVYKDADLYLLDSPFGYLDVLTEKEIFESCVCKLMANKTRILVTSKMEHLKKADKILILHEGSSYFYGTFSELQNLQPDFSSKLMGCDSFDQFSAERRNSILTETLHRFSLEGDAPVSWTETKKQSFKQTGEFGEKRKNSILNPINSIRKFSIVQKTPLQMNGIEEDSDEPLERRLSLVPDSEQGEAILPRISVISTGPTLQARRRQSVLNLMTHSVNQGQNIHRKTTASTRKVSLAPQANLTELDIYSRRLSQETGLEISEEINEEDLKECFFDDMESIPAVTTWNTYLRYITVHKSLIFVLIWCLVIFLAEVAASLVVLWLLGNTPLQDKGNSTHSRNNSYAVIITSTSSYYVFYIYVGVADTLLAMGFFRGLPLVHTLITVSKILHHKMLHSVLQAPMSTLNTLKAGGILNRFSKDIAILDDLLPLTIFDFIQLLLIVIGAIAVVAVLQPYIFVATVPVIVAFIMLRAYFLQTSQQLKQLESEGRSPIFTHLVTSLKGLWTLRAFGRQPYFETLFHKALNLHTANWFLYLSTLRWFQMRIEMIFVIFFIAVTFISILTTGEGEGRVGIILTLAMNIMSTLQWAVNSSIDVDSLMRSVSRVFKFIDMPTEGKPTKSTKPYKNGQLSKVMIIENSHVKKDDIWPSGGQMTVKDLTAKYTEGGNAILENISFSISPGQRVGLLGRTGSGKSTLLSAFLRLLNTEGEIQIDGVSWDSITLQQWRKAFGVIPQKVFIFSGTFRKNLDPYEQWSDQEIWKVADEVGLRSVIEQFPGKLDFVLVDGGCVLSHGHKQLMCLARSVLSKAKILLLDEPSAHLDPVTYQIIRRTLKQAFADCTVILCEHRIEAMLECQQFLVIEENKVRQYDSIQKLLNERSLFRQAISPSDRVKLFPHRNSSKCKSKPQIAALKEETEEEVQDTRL

| SMILES | Ent. B Max Activity | EC50 [nM] |
| --- | --- | --- |
| COc1ccccc1-c1c2nc(nc1-c1c(C)cccc1C)NS(=O)(=O)c1cccc(c1)C(=O)NC[C@@H](C)O2 [Compound 131] | +++ (+++ is >60%) | 1000 to 3000 |
| COc1ccc(-c2c3nc(nc2-c2c(C)cccc2C)NS(=O)(=O)c2cccc(c2)C(=O)NC[C@@H](C)O3)cc1 [Compound 130] | +++ (+++ is >60%) | < 1000 |
| Cc1cccc(C)c1-c1nc2nc(c1C)OC[C@@H](CC1(C(F)(F)F)CC1)N(C1CC3(CCN(C(=O)OC(C)C)CC3)C1)C(=O)c1cccc(c1)S(=O)(=O)N2 [Compound 76] | +++ (+++ is >60%) | < 1000 |
| Cc1cccc(C)c1-c1nc2nc(c1CO)OC[C@@H](CC(C)C)N(C1CC3(CC3)C1)C(=O)c1cccc(c1)S(=O)(=O)N2 [Compound 170, (11R)-6-(2,6-Dimethylphenyl)-7-(hydroxymethyl)-11-isobutyl-2,2-dioxo-12-spiro[2.3]hexan-5-yl-9-oxa-2λ^6-thia-3,5,12,19-tetrazatricyclo[12.3.1.14,8]nonadeca-1(18),4(19),5,7,14,16-hexaen-13-one] | ++ (++ is 30-60%) | < 1000 |
| Cc1cccc(C)c1-c1nc2nc(c1-c1ccccc1)OC[C@@H](C)NC(=O)c1cccc(c1)S(=O)(=O)N2 [Compound 142] | ++ (++ is 30-60%) | < 1000 |
| Cc1cccc(C)c1-c1nc2nc(c1C1=CCOCC1)O[C@H](C)CNC(=O)c1cccc(c1)S(=O)(=O)N2 [Compound 152] | ++ (++ is 30-60%) | 3000 to 30000 |
| Cc1cccc(C)c1-c1nc2nc(c1-c1cccnc1)O[C@H](C)CNC(=O)c1cccc(c1)S(=O)(=O)N2 [Compound 133] | + (+ is <30%) | – |
| Cc1cccc(C)c1-c1nc2nc(c1C)O[C@H](C)CN(C1CC3(CC(NC(=O)OC(C)(C)C)C3)C1)C(=O)c1cccc(c1)S(=O)(=O)N2 (stereo partly shown) [Compound 201] | ++ (++ is 30-60%) | < 1000 |
| COc1ccc(-c2c3nc(nc2-c2c(C)cccc2C)NS(=O)(=O)c2cccc(c2)C(=O)N[C@H](C)CO3)cc1 [Compound 144] | +++ (+++ is >60%) | < 1000 |
| Cc1cccc(C)c1-c1nc2nc(c1/C=C/C(C)(C)C)OC[C@@H](C)NC(=O)c1cccc(c1)S(=O)(=O)N2 [Compound 138] | ++ (++ is 30-60%) | < 1000 |
| Cc1cccc(C)c1-c1nc2nc(c1C)OC[C@@H](CC1(C(F)(F)F)CC1)N(C1CC3(CC(NC(=O)OC(C)C)C3)C1)C(=O)c1cccc(c1)S(=O)(=O)N2 (stereo in doubt) [Compound 89] | +++ (+++ is >60%) | < 1000 |
| Cc1cccc(C)c1-c1nc2nc(c1C1=CCN(C(=O)OC(C)(C)C)CC1)O[C@H](C)CNC(=O)c1cccc(c1)S(=O)(=O)N2 [Compound 149] | ++ (++ is 30-60%) | < 1000 |
| COC(=O)N1CCC2(CC1)CC(N1C(=O)c3cccc(c3)S(=O)(=O)Nc3nc(c(C)c(-c4c(C)cccc4C)n3)OC[C@H]1CC(C)(C)C(F)(F)F)C2 [Compound 183] | +++ (+++ is >60%) | < 1000 |
| Cc1cccc(C)c1-c1nc2nc(c1-c1cccnc1)OC[C@@H](C)NC(=O)c1cccc(c1)S(=O)(=O)N2 [Compound 143] | + (+ is <30%) | – |
| Cc1cccc(C)c1-c1nc2nc(c1CN(C)C)OC[C@@H](CC(C)C)N(C1CC3(CC3)C1)C(=O)c1cccc(c1)S(=O)(=O)N2 [Compound 171, (11R)-7-[(Dimethylamino)methyl]-6-(2,6-dimethylphenyl)-11-isobutyl-2,2-dioxo-12-spiro[2.3]hexan-5-yl-9-oxa-2λ^6-thia-3,5,12,19-tetrazatricyclo[12.3.1.14,8]nonadeca-1(18),4(19),5,7,14,16-hexaen-13-one] | ++ (++ is 30-60%) | < 1000 |
| Cc1cccc(C)c1-c1nc2nc(c1C)OC[C@@H](CC(C)(C)C(F)(F)F)N(C1CC3(CCN(C(=O)OC(C)C)CC3)C1)C(=O)c1cccc(c1)S(=O)(=O)N2 [Compound 184] | +++ (+++ is >60%) | < 1000 |
| Cc1cccc(C)c1-c1nc2nc(c1C)OC[C@@H](CC(C)(C)O)N(Cc1ncccn1)C(=O)c1cccc(c1)S(=O)(=O)N2 [Compound 111] | +++ (+++ is >60%) | 1000 to 3000 |
| Cc1cccc(C)c1-c1nc2nc(c1C)OC[C@@H](CC1(C(F)(F)F)CC1)N(C1CC3(CC(N(C)C)C3)C1)C(=O)c1cccc(c1)S(=O)(=O)N2 (stereo in doubt) [Compound 90] | +++ (+++ is >60%) | < 1000 |
| Cc1cccc(C)c1-c1nc2nc(c1C1CCN(C(=O)OC(C)(C)C)CC1)OC[C@@H](C)NC(=O)c1cccc(c1)S(=O)(=O)N2 [Compound 141] | + (+ is <30%) | – |

The remaining lines, values ahead:

| Ent. B Max Activity | EC50 [nM] | SMILES |
| --- | --- | --- |
| +++ (+++ is >60%) | < 1000 | COc1ccccc1-c1c2nc(nc1-c1c(C)cccc1C)NS(=O)(=O)c1cccc(c1)C(=O)NC[C@@H](C)O2 [Compound 153] |
| +++ (+++ is >60%) | 1000 to 3000 | Cc1cccc(C)c1-c1nc2nc(c1C)OC[C@@H](CC(C)(C)O)N(C1CC3(CC3)C1)C(=O)c1cccc(c1)S(=O)(=O)N2 [Compound 108, (11R)-6-(2,6-Dimethylphenyl)-11-(2-hydroxy-2-methyl-propyl)-7-methyl-2,2-dioxo-12-spiro[2.3]hexan-5-yl-9-oxa-2λ^6-thia-3,5,12,19-tetrazatricyclo[12.3.1.14,8]nonadeca-1(18),4(19),5,7,14,16-hexaen-13-one] |
| +++ (+++ is >60%) | < 1000 | COCCN1CCC2(CC1)CC(N1C(=O)c3cccc(c3)S(=O)(=O)Nc3nc(c(F)c(-c4c(C)cccc4C)n3)OC[C@H]1CC(C)C)C2 [Compound 185] |
| ++ (++ is 30-60%) | 1000 to 3000 | Cc1cccc(C)c1-c1nc2nc(c1C1CCN(C(=O)OC(C)(C)C)CC1)O[C@H](C)CNC(=O)c1cccc(c1)S(=O)(=O)N2 [Compound 150] |
| +++ (+++ is >60%) | < 1000 | Cc1cccc(C)c1-c1nc2nc(c1C)OC[C@@H](CC1(C(F)(F)F)CC1)N(C1CC3(CC(N(C)C)C3)C1)C(=O)c1cccc(c1)S(=O)(=O)N2 (stereo in doubt) [Compound 91] |
| +++ (+++ is >60%) | < 1000 | Cc1cccc(C)c1-c1nc2nc(c1C)OC[C@@H](CC(C)C)N([C@H]1C[C@@]3(C[C@H](N(C)C)C3)C1)C(=O)c1cccc(c1)S(=O)(=O)N2 (single isomer, unassigned) [Compound 54] |
| +++ (+++ is >60%) | < 1000 | Cc1cccc(C)c1-c1nc2nc(c1C)OC[C@@H](CC(C)(C)C)N(C1CC3(CC(CO)C3)C1)C(=O)c1cccc(c1)S(=O)(=O)N2 (stereo in doubt) [Compound 78] |
| +++ (+++ is >60%) | < 1000 | Cc1cccc(C)c1-c1nc2nc(c1C)OC[C@@H](CC(C)C)N(C1CC3(CC(CO)C3)C1)C(=O)c1cccc(c1)S(=O)(=O)N2 (stereo in doubt) [Compound 66] |
| +++ (+++ is >60%) | < 1000 | Cc1cccc(C)c1-c1nc2nc(c1C)OC[C@@H](CC(C)C)N(C1CC3(CC(CO)C3)C1)C(=O)c1cccc(c1)S(=O)(=O)N2 (stereo in doubt) [Compound 67] |
| +++ (+++ is >60%) | < 1000 | Cc1cccc(C)c1-c1nc2nc(c1C)OC[C@@H](CC(C)C)N(C1CC3(CCN(C(=O)OC(C)C)CC3)C1)C(=O)c1cccc(c1)S(=O)(=O)N2 [Compound 70] |
